Tests used:
DLK = molecular target: T1, DLK (Homo sapiens, UniProt Q12852); assay: DLK biochemical assay (TR-FRET, MKK7 phosphorylation)
T1 construct: 10 nM DLK, catalytic domain, Carna Biosiences; purchased Carna Biosciences ('Carna Biosiences' [sic])
T1 sequence (Q12852 125-366 limits assumed): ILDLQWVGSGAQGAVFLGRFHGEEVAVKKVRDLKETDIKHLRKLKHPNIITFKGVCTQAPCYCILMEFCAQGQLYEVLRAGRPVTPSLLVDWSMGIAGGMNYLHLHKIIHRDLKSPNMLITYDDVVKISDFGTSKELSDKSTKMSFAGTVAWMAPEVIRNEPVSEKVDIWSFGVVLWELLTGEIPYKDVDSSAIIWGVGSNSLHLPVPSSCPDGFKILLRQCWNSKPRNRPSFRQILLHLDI
Method: (§1) DLK assay is a biochemical assay format designed to screen for inhibitors of DLK. Enzymatic activity of DLK is measured by monitoring phosphorylation of the physiological substrate MKK7 (MAP2K7, Dual specificity mitogen-activated protein kinase kinase 7). Phosphorylation is detected by a TR-FRET system whereby His-tagged MKK7 is labeled by a XL665-labeled anti-His antibody (FRET acceptor, emission 665 nm). DLK phosphorylates MKK7 at T275/S277, which is detected by an Eu-labeled anti-phospho-MKK7 (T275/S277) antibody (FRET donor, excitation 340 nm). Phosphorylation of MKK7 results in an increased TR-FRET signal (Ratio XL665-channel/Eu-channel) and inhibition of enzymatic activity of DLK decreases the TR-FRET signal.
Assay Protocol for 1536 MTP format: test compounds are predispensed (60 nl) in test plates; +3 μl DLK solution (10 nM DLK, catalytic domain, Carna Biosiences, 0.6 mM DTT in assay buffer); +2 μl substrate solution (15 nM MKK7, LDB; 60 μM ATP; 0.4 mM DTT in assay buffer); 90 min incubation at RT; +2 μl detection mix (5 nM XL665-labeled anti-His antibody, Cisbio; 0.1 nM Eu-labeled anti-phospho-MKK7 (T275/S277), Cisbio/Millipore in detection buffer); 16 h incubation at 37° C.; endpoint measurement BMG (HTRF).
(§2) Assay Protocol for 384 low volume MTP format: 1 μl of test compounds is pipetted into test plate; +5 μl DLK solution (10 nM DLK, catalytic domain, Carna Biosiences in assay buffer); +5 μl substrate solution (15 nM MKK7, LDB; 60 μM ATP, in assay buffer); 90 min incubation at RT; +9 μl detection mix (20 nM XL665-labeled anti-His antibody, Cisbio; 0.4 nM Eu-labeled anti-phospho-MKK7 (T275/S277), Cisbio/Millipore in detection buffer); 16 h incubation at 4° C.; endpoint measurement BMG (HTRF).
(§3) All indicated concentrations final concentrations.
(§4) Assay buffer (384 format): 50 mM Hepes pH 7.5, 10 mM MgCl2, 1 mM EGTA, 1 mM DTT, 0.01% Triton X-100, 0.01% BSA, 1:500 Smart Block.
(§5) Detection buffer: 25 mM Tris/HCl pH 7.5, 100 mM EDTA, 100 mM NaCl, 200 mM KF, 0.01% Tween 20, 1:500 Smart Block.

LZK = molecular target: T2, LZK (Homo sapiens, UniProt O43283); assay: LZK biochemical assay (TR-FRET, MKK7 phosphorylation)
T2 construct: 10 nM LZK, catalytic domain, Carna Biosiences in assay buffer; purchased Carna Biosciences ('Carna Biosiences' [sic])
T2 sequence (O43283 168-409 limits assumed): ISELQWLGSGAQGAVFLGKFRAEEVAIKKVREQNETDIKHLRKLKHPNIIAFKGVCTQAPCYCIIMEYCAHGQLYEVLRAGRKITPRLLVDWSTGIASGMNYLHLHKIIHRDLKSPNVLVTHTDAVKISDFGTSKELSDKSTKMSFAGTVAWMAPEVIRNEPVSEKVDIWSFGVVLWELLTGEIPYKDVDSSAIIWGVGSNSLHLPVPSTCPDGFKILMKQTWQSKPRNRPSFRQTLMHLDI
Method: as §1, with “LZK” for “DLK”, “LZK.” for “DLK.”, “T275/S277” for “T275/S277,”
as §2, with “compound” for “compounds”, “LZK” for “DLK”, “LZK,” for “DLK,”, “15” for “60”, “+5” for “+9”, “32°” for “4°”
as §3, §4, §5

Structure (SMILES) | IC50 (DLK) [nM] | IC50 (LZK) [nM]
CCC(c1ccc(C(F)F)nc1)n1cc(-c2cc(-c3ccc(C(F)(F)F)nc3)n3nc(N)nc3c2)cn1 (single isomer, unassigned) [II-62, 7-(1-{1-[6-(Difluoromethyl)pyridin-3-yl]propyl}-1H-pyrazol-4-yl)-5-[6-(trifluoromethyl)pyridin-3-yl][1,2,4]triazolo[1,5-a]pyridin-2-amine] | 440 | 220
CCC(c1ccc(C(F)(F)F)nc1)n1cc(-c2cc(-c3ccc(C4CC4)nc3)n3nc(N)nc3c2)cn1 (single isomer, unassigned) [II-56, 5-(6-Cyclopropylpyridin-3-yl)-7-(1-{1-[6-(trifluoromethyl)pyridin-3-yl]propyl}-1H-pyrazol-4-yl)[1,2,4]triazolo[1,5-a]pyridin-2-amine] | 37 | 56
CC(C)C(c1ccc(C(F)(F)F)nc1)n1cc(-c2cc(-c3cnc(OCC(F)(F)F)nc3)n3nc(N)nc3c2)cn1 (racemic) [II-85, 7-(1-{2-Methyl-1-[6-(trifluoromethyl)pyridin-3-yl]propyl}-1H-pyrazol-4-yl)-5-[2-(2,2,2-trifluoroethoxy)pyrimidin-5-yl][1,2,4]triazolo[1,5-a]pyridin-2-amine] | 230 | 320
CC(C)C(c1ccc(C(F)(F)F)nc1)n1cc(-c2cc(-c3ccc(C(F)(F)F)nc3)c3nc(N)nn3c2)cn1 (racemic) [II-40, 6-(1-{2-Methyl-1-[6-(trifluoromethyl)pyridin-3-yl]propyl}-1H-pyrazol-4-yl)-8-[6-(trifluoromethyl)pyridin-3-yl][1,2,4]triazolo[1,5-a]pyridin-2-amine] | 44 | 120
Nc1nc2c(-c3cn(CC(F)(F)F)c(=O)cn3)cc(-c3cnn(C(c4ccc(C(F)(F)F)nc4)C4CCOCC4)c3)cn2n1 (single isomer, unassigned) [II-167, 5-[2-Amino-6-(1-{tetrahydro-2H-pyran-4-yl[6-(trifluoromethyl)pyridin-3-yl]methyl}-1H-pyrazol-4-yl)[1,2,4]triazolo[1,5-a]pyridin-8-yl]-1-(2,2,2-trifluoroethyl)pyrazin-2(1H)-one] | 1.3 | 9.9
CC(C)[C@@H](c1ccc(C(F)(F)F)nc1)n1cc(-c2cc(-c3cnn(CC(F)(F)F)c3)n3nc(N)nc3c2)cn1 [II-140] | 3 | 13
CCC(c1ccc(C(F)(F)F)nc1)n1cc(-c2cc(-c3ccn(C)c(=O)c3)c3nc(N)nn3c2)cn1 (single isomer, unassigned) [II-171, 4-[2-Amino-6-(1-{1-[6-(trifluoromethyl)pyridin-3-yl]propyl}-1H-pyrazol-4-yl)[1,2,4]triazolo[1,5-a]pyridin-8-yl]-1-methylpyridin-2(1H)-one] | 9.3 | 41
CCC(c1ccc(C(F)(F)F)nc1)n1cc(-c2cc(-c3ccc(=O)n(C(F)F)c3)n3nc(N)nc3c2)cn1 (single isomer, unassigned) [II-181, 5-[2-Amino-7-(1-{1-[6-(trifluoromethyl)pyridin-3-yl]propyl}-1H-pyrazol-4-yl)[1,2,4]triazolo[1,5-a]pyridin-5-yl]-1-(difluoromethyl)pyridin-2(1H)-one] | 2.7 | 5.4
Nc1nc2c(-c3ccn(CC(F)(F)F)c(=O)c3)cc(-c3cnn(C(c4ccc(C(F)(F)F)nc4)C4CCOCC4)c3)cn2n1 (single isomer, unassigned) [II-177, 4-[2-Amino-6-(1-{tetrahydro-2H-pyran-4-yl[6-(trifluoromethyl)pyridin-3-yl]methyl}-1H-pyrazol-4-yl)[1,2,4]triazolo[1,5-a]pyridin-8-yl]-1-(2,2,2-trifluoroethyl)pyridin-2(1H)-one] | 10 | 33
CC(C)C(c1ccc(C(F)(F)F)nc1)n1cc(-c2cc(-c3ccnc(C(F)(F)F)c3)n3nc(N)nc3c2)cn1 (racemic) [II-28, 7-(1-{2-Methyl-1-[6-(trifluoromethyl)pyridin-3-yl]propyl}-1H-pyrazol-4-yl)-5-[2-(trifluoromethyl)pyridin-4-yl][1,2,4]triazolo[1,5-a]pyridin-2-amine] | 28 | 27
CCC(c1ccc(C(F)(F)F)nc1)n1cc(-c2cc(-c3cccc(C(C)(C)O)c3)c3nc(N)nn3c2)cn1 (racemic) [II-7, 2-{3-[2-Amino-6-(1-{1-[6-(trifluoromethyl)pyridin-3-yl]propyl}-1H-pyrazol-4-yl)[1,2,4]triazolo[1,5-a]pyridin-8-yl]phenyl}propan-2-ol] | 0.8 | 3.3
CC(C)C(c1ccc(C(F)F)nc1)n1cc(-c2cc(-c3ccc(C(F)(F)F)nc3)n3nc(N)nc3c2)cn1 (racemic) [II-64, 7-(1-{1-[6-(Difluoromethyl)pyridin-3-yl]-2-methylpropyl}-1H-pyrazol-4-yl)-5-[6-(trifluoromethyl)pyridin-3-yl][1,2,4]triazolo[1,5-a]pyridin-2-amine] | 40 | 59
CCC(c1ccc(C(F)(F)F)nc1)n1cc(-c2cc(-c3ccc(C4CC4)nc3)n3nc(N)nc3c2)cn1 (racemic) [II-55, 5-(6-Cyclopropylpyridin-3-yl)-7-(1-{1-[6-(trifluoromethyl)pyridin-3-yl]propyl}-1H-pyrazol-4-yl)[1,2,4]triazolo[1,5-a]pyridin-2-amine] | 21 | 24
CC(C)C(c1ccc(C(F)(F)F)nc1)n1cc(-c2cc(-c3cnn(CC(F)(F)F)c3)n3nc(N)nc3c2)cn1 (centres unmarked) [II-139] | 11 | 27
CCC(c1ccc(OC(F)(F)F)nc1)n1cc(-c2cc(-c3ccc(=O)n(CC(F)(F)F)c3)c3nc(N)nn3c2)cn1 (single isomer, unassigned) [II-164, 5-[2-Amino-6-(1-{1-[6-(trifluoromethoxy)pyridin-3-yl]propyl}-1H-pyrazol-4-yl)[1,2,4]triazolo[1,5-a]pyridin-8-yl]-1-(2,2,2-trifluoroethyl)pyridin-2(1H)-one] | 3.5 | 17
CC(C)C(c1ccc(C(F)(F)F)nc1)n1cc(-c2cc(-c3cnn(C4CCCC4)c3)n3nc(N)nc3c2)cn1 (single isomer, unassigned) [II-144, 5-(1-Cyclopentyl-1H-pyrazol-4-yl)-7-(1-{2-methyl-1-[6-(trifluoromethyl)pyridin-3-yl]propyl}-1H-pyrazol-4-yl)[1,2,4]triazolo[1,5-a]pyridin-2-amine] | 27 | 57

Source: patent publication US20230086702A1, “SUBSTITUTED 2-AMINO-PYRAZOLYL-[1,2,4]TRIAZOLO[1,5A]PYRIDINE DERIVATIVES AND USE THEREOF” (The Johns Hopkins University, priority 2019, published 2023)
